# Assay results taken from paper PMC2951761 (Biochemistry, 2010).
# Read-outs that look alike come from different tables or passages of the source.
# What was measured:
# CyaA CC activity = CyaA CC activity (Bordetella pertussis, UniProt P0DKX7); type: biochemical; settings: read-out: Ki CyaA CC activity
# EF AC activity [1] = biological target: T1, EF AC activity (Bacillus anthracis, UniProt P40136); settings: read-out: Ki EF AC activity; cited from earlier work
# CyaA AC activity = CyaA AC activity (Bordetella pertussis, UniProt P0DKX7); settings: read-out: Ki CyaA AC activity; cited from earlier work
# EF CC activity = EF CC activity (Bacillus anthracis, UniProt P40136); type: biochemical; settings: read-out: Ki EF CC activity
# EF AC activity [2] = biological target: T1, EF AC activity; type: biochemical; settings: read-out: Ki EF AC activity
# CyaA AC activity, sequence (P0DKX7 whole entry, looked up): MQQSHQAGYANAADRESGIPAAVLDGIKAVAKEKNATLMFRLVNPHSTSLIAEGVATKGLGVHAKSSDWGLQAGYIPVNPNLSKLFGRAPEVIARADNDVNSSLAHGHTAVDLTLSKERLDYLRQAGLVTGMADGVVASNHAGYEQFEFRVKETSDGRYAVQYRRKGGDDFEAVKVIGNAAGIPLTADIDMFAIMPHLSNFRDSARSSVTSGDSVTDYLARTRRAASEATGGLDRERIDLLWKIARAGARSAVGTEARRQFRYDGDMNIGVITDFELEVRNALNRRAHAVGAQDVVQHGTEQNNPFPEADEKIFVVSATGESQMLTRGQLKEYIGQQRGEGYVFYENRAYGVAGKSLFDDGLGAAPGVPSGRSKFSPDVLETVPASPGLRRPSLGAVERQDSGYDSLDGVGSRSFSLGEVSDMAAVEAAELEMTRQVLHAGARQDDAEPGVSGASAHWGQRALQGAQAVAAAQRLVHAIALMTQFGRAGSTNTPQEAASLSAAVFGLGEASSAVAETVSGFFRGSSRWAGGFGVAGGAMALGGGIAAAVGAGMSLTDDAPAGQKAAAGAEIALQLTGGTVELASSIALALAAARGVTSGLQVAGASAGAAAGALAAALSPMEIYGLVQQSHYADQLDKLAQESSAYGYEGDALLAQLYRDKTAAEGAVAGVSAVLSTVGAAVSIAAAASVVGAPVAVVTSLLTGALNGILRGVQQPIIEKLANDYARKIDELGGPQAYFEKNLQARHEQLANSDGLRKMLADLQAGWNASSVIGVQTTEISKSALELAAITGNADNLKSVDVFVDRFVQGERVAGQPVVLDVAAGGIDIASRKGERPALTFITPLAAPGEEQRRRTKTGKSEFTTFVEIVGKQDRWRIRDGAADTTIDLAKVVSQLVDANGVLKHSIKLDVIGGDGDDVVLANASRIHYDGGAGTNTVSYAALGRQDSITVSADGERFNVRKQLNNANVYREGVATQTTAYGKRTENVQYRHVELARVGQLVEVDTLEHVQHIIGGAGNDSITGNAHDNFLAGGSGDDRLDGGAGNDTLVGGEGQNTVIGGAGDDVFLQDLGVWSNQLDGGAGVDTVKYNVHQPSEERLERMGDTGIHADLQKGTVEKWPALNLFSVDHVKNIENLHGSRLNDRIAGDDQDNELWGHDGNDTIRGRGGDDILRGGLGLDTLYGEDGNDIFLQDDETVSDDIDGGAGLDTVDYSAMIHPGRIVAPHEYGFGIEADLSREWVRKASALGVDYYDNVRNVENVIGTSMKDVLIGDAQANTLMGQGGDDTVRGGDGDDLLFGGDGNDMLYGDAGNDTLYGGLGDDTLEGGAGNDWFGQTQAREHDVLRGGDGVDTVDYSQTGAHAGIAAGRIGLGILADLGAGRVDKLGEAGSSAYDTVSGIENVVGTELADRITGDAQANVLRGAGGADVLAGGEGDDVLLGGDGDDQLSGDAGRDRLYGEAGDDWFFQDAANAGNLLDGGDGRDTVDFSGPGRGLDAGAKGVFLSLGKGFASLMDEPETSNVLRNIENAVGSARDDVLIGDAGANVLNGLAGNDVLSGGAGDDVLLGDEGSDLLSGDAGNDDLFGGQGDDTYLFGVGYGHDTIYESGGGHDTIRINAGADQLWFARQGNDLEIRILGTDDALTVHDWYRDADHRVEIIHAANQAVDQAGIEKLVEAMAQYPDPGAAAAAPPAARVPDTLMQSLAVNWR
# CyaA CC activity, sequence (P0DKX7 whole entry, looked up): as above
# T1 sequence (P40136 whole entry, looked up): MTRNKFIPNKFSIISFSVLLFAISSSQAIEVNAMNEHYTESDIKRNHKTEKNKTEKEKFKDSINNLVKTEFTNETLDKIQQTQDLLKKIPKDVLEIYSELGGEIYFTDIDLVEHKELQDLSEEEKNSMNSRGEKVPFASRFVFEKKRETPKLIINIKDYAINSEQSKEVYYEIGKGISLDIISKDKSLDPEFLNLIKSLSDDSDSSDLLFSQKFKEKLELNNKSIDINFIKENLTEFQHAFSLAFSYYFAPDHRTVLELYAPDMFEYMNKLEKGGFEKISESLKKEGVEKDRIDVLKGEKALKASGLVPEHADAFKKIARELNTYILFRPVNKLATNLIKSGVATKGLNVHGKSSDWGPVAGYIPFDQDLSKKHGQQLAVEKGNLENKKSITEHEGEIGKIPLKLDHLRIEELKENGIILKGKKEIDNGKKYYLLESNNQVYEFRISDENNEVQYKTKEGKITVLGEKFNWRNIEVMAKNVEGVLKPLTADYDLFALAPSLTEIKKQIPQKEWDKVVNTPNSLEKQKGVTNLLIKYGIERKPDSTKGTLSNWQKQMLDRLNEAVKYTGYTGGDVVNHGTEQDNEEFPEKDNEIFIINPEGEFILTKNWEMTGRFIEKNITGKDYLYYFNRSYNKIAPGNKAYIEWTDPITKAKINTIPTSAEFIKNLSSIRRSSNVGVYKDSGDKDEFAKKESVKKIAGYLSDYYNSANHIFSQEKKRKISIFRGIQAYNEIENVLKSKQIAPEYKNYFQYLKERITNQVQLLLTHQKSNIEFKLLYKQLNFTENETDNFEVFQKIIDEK
# EF CC activity, sequence (P40136 whole entry, looked up): as above
Compound,Ki (CyaA CC activity),Ki (EF AC activity [1]),Ki (CyaA AC activity),Ki (EF CC activity),Ki (EF AC activity [2])
MANT-GTP,6.1 ± 2 µM,2.5 ± 0.1 µM,5.9 ± 1 µM,2.8 ± 0.4 µM,–
MANT-ATP,4.4 ± 0.1 µM,–,4.3 ± 0.4 µM,–,–
"Nc1ncnc2c1ncn2CCOCP(=O)(O)OP(=O)(O)OP(=O)(O)O [PMEApp, [9-[2-(Phosphonomethoxy)ethyl]adenine diphosphate]]",–,–,–,0.0045 ± 0.0004 µM,0.002 ± 0.0005 µM
